Reference: paper PMC6271425, “Synthesis and Sar Study of Diarylpentanoid Analogues as New Anti-Inflammatory Agents” (Molecules, 2014)
“Also recorded” adds a separate entry of the source. Like-named read-outs stand apart in the source and are kept apart here.

What was measured:
[1] = test system: NO production in IFN-γ/LPS-stimulated RAW 264.7 macrophages; test: NO suppression (Griess nitrite determination) in IFN-γ/LPS-stimulated RAW 264.7 macrophages; assay type: cell-based, murine; details: for NO Inhibition at 50 µM (%) ± S.E.M: 50 µM test concentration; for inhibition at 50 µM: RAW264.7, 50 µM test concentration, read-out: NO Inhibition at 50 µM (%) ± S.E.M
Procedure: The synthesized compounds were screened for NO suppression activity in IFN-γ/LPS-stimulated RAW 264.7 macrophages at a 50 µM test concentration. […] The IC50 values of the fifty-seven bioactive compounds were determined and compared to that of the positive control, curcumin. An MTT assay was also carried out to confirm that NO inhibition was not due to cytotoxicity. […] The complete bioassay results of all the compounds are provided as Table S2 in Supplementary Data. RAW 264.7 murine macrophages cells obtained from American Type Culture Collection (ATCC, Rockville, MD, USA) were grown in Dulbecco’s Modified Eagle’s Medium (DMEM) containing 10% fetal bovine serum (FBS) and 1% penicillin/streptomycin in a 95% air and 5% CO2 atmosphere at 37 °C. RAW 264.7 cells at 90%–95% confluency were detached and seeded (50,000 cells/well) into a 96-well culture plate with 50 μL of DMEM and incubated for 24 h. The cells were then stimulated in […] of LPS (Escherichia coli, serotype 0111:B4) and 1 ng/ml of interferon-gamma (IFN-γ) in the presence or absence of test compounds for 17 h. Nitrite concentration was then determined by Griess assay by reacting 50 μL of cell culture supernatant with 50 μL of Griess reagent (1% sulfanilamide and 0.1% N-(1-naphthyl)ethylenediamine dihydrochloride in 2.5% phosphoric acid) at room temperature. The optical density was measured at 550 nm after 5 min of incubation at room temperature with a microplate reader.

[2] = Cell cytotoxicity determination (MTT assay); assay type: cell-based, murine; details: mouse, RAW 264.7 macrophage cells, RAW 264.7 cells, read-out: Cytotoxicity IC50 (µM) ± S.E.M
Procedure: (§1) The synthesized compounds were screened for NO suppression activity in IFN-γ/LPS-stimulated RAW 264.7 macrophages at a 50 µM test concentration. […] The IC50 values of the fifty-seven bioactive compounds were determined and compared to that of the positive control, curcumin. An MTT assay was also carried out to confirm that NO inhibition was not due to cytotoxicity. […] The complete bioassay results of all the compounds are provided as Table S2 in Supplementary Data.
(§2) RAW 264.7 murine macrophages cells obtained from American Type Culture Collection (ATCC, Rockville, MD, USA) were grown in Dulbecco’s Modified Eagle’s Medium (DMEM) containing 10% fetal bovine serum (FBS) and 1% penicillin/streptomycin in a 95% air and 5% CO2 atmosphere at 37 °C.
(§3) Supernatant in each well was removed followed by addition of 100 µL DMEM. Subsequently, 20 µL of 3-(4,5-dimethylthiazol-2-yl)-2,5-diphenyltetrazolium bromide (MTT, 5 mg/mL) was then added and the plate was incubated in a 95% air and 5% CO2 atmosphere at 37 °C for 4 h. The mixture of culture media and MTT in all wells were removed and the purplish formazan crystals formed were dissolved in dimethyl sulfoxide (DMSO) and further incubated for 15 min at room temperature. The color intensity was then measured at 570 nm at room temperature.

RAW 264.7 cells = test: Cell cytotoxicity determination (MTT assay); assay type: cell-based, murine; details: read-out: Cytotoxicity IC50 (µM) ± S.E.M
Procedure: as §1, §2, §3

[3] = Chemical stability test (UV-visible spectra in phosphate buffer pH 7.4); assay type: physicochemical; details: 20 μM in phosphate buffer pH 7.4, 1% DMSO, 30 min at 5-min intervals, 25 °C
Procedure: Poor chemical stability of curcumin has been proven as one of the important factors, which cause its low bioavailability. Therefore, in the present study, we further tested the two best compounds (88 and 97) for their chemical stability at physiological pH and compared it to that of curcumin used as reference. The test was carried out by observing the ultraviolet spectral changes of the targeted compounds for 30 minutes with 5-minutes intervals in phosphate buffer (pH 7.4). Figure 8, Figure 9 and Figure 10 depict the ultraviolet changes of curcumin, compound 88 and compound 97, respectively.
Absorbance readings were taken from 300–600 nm using a SpectraMax Plus 384 (Molecular Devices LLC, Sunnyvale, CA, USA). A stock solution of 50 mM curcumin or active compounds 88 and 97 were prepared and diluted by phosphate buffer (pH 7.4), containing 1% dimethyl sulfoxide (DMSO), to a final concentration of 20 μM. The ultraviolet absorption spectra were collected for over 30 min at 5-min intervals at 25 °C. All spectral measurements were carried out in a 1 cm path-length quartz cuvette.

[4] = IFN-γ/LPS-stimulated RAW 264.7 cells
[5] = Mus musculus, IFN-γ/LPS-stimulated RAW 264.7 cells
[6] = Mus musculus, RAW264.7, IFN-γ/LPS-stimulated RAW 264.7 cells, read-out: NO Inhibition IC50 (µM) ± S.E.M
[7] = Mus musculus, RAW264.7, Table 6, NO suppression IC50 used for QSAR, unit inferred, read-out: IC50
[8] = Mus musculus, RAW264.7, −log IC50 of NO suppression, read-out: pIC50 (converted)
[9] = IFN-γ/LPS-stimulated RAW 264.7 cells, read-out: NO Inhibition IC50 (µM) ± S.E.M

Row | IC50 [1, 6] [µM] | IC50 [1, 7] [µM] | IC50 [1, 8] [µM] | IC50 [1, 9] [µM] | SMILES | NO Inhibition at 50 µM (%) ± S.E.M [1, 4] [%] | inhibition at 50 µM [1, 5] [%] | IC50 [2] [µM] | IC50 (RAW 264.7 cells) [µM] | Chemical stability (ultraviolet spectral changes) [3]
1 | 30.8 ± 0.722 | 30.8 ± 0.7 | 30.9 |  | O=C(/C=C(O)/C=C/c1cccc(O)c1)c1ccccc1O [Compound 80] | 97.2 ± 0.7 | 97.22 ± 0.69 | 85 ± 1.44 | 67.3 ± 0.6 | 
2 | 19.1 ± 0.644 | 19.1 ± 0.6 | 19.1 | < 20 | O=C(/C=C(O)/C=C/c1ccc(O)cc1)c1ccccc1O [Compound 81] | 91.5 ± 3.9 | 91.5 ± 3.86 | 94.13 ± 0.917 | > 100 | 
3 | 4.89 ± 0.312 | 4.9 ± 0.3 | 4.9 |  | O=C(/C=C(O)/C=C/c1ccc(O)c(O)c1)c1cc(Cl)ccc1O [Compound 88] | 99.7 ± 1.2 | 99.7 ± 1.15 | 56.4 ± 1.19 | 40.9 ± 1.6 | excellent chemical stability; also recorded: no significant changes
4 | 31 ± 2 |  | 30.9 |  | O=C(/C=C(O)/C=C/c1ccccc1O)c1cc(O)ccc1O [Compound 89] | 83.6 ± 2.0 | 83.6 ± 2 | 67.3 ± 0.552 | 72.6 ± 2.6 | 
5 | 9.56 ± 0.468 | 9.6 ± 0.5 | 9.55 |  | O=C(/C=C(O)/C=C/c1ccc(O)c(O)c1)c1ccccc1O [Compound 97] | 98.9 ± 1.6 | 98.9 ± 1.58 | > 100 |  | excellent chemical stability; also recorded: no significant changes

Second part, the compound before the results:

Row | SMILES | IC50 [1, 6] [µM] | IC50 [1, 7] [µM] | IC50 [1, 8] [µM] | IC50 [1, 9] [µM] | NO Inhibition at 50 µM (%) ± S.E.M [1, 4] [%] | inhibition at 50 µM [1, 5] [%] | IC50 [2] [µM] | IC50 (RAW 264.7 cells) [µM] | Chemical stability (ultraviolet spectral changes) [3]
6 | O=C(/C=C(O)/C=C/c1ccccc1O)c1cc(Cl)ccc1O [Compound 84] | 15.9 ± 0.947 | 15.9 ± 0.9 | 15.8 | < 20 |  | 95.2 ± 0.9 | 40.9 ± 1.63 | 53.1 ± 1 | 
7 | O=C(/C=C(O)/C=C/c1cccc(O)c1)c1cc(Cl)ccc1O [Compound 85] | 26.9 ± 0.796 | 26.9 ± 0.8 | 26.9 |  | 95.9 ± 0.5 | 95.86 ± 0.45 | 53.1 ± 0.973 | 89.1 ± 1.1 | 
8 | O=C(/C=C(O)/C=C/c1ccc(O)cc1)c1cc(Cl)ccc1O [Compound 86] | 18.7 ± 0.786 | 18.7 ± 0.8 | 18.6 | < 20 | 90.3 ± 2.7 | 90.3 ± 2.66 | 89.1 ± 1.08 | 66 ± 1.2 | 
9 | O=C(/C=C(O)/C=C/c1cc(O)ccc1O)c1cc(Cl)ccc1O [Compound 87] | 32.3 ± 0.865 | 32.3 ± 0.9 | 32.4 |  | 96.5 ± 1.4 | 96.5 ± 1.42 | 66 ± 1.21 | 49.5 ± 1.7 | 
10 | O=C(/C=C(O)/C=C/c1cccc(O)c1)c1cc(O)ccc1O [Compound 90] |  |  | 35.5 |  | 90.9 ± 2.0 | 90.9 ± 2.02 | > 100 | 85 ± 1.4 | 
11 | O=C(/C=C(O)/C=C/c1ccco1)c1cc(O)ccc1O [Compound 91] | 75 ± 4.9 | 75 ± 4.9 | 74.1 |  | 83.6 ± 2.8 | 83.6 ± 2.84 | > 100 | 94.1 ± 0.9 | 
12 | O=C(/C=C(O)/C=C/c1ccccc1)c1ccc(O)cc1O [Compound 93] | 29.9 ± 0.444 | 29.9 ± 0.4 | 30.2 |  | 94.7 ± 2.3 | 94.7 ± 2.28 | 59.46 ± 0.511 | 59.5 ± 0.5 | 
13 | O=C(/C=C(O)/C=C/c1cccc(O)c1)c1ccc(O)cc1O [Compound 94] | 24.8 ± 0.4 | 24.8 ± 0.4 | 24.5 |  | 95.4 ± 1.5 | 95.4 ± 1.45 | 70.1 ± 1.8 | 70.1 ± 1.8 | 
14 | COc1cc(/C=C/C(=O)CC(=O)/C=C/c2ccc(O)c(OC)c2)ccc1O [Curcumin, curcumin, reference compound] | 14.7 ± 0.24 |  |  | 14.7 ± 0.2 | 99.3 ± 0.2 | 99.33 ± 0.2 | 28.8 ± 0.77 | 28.8 ± 0.8 | gradually decreased over time
